Measured values: patent US12662478B2, “ATF6 modulators and uses thereof” (Altos Labs, Inc., priority 2019, dated 2026)

How the values were obtained:
ATF6 [1] = target: T1, ATF6 (Homo sapiens, UniProt P18850); assay: ERSE ATF6-luciferase assay in presence of Tg-induced ER stress (U2-OS ATF6 TRE-luciferase reporter cells); format: cell-based; conditions: in presence of ER stress (thapsigargin), Tg only = 100%; for activity at 1 µM / activity at 10 µM: U2OS, 8 h; for activity at 1 µM / ATF6 activity @ 1 μM [%]: 1 μM test compound; for activity at 10 µM / ATF6 activity @ 10 μM [%]: 10 μM test compound; for ATF6 activity @ 1 μM [%] / ATF6 activity @ 10 μM [%]: 8 hr
T1 construct: endogenous in cells; host or cells: U2-OS (ATCC HTB-96) stably transduced with the Cignal Lenti ATF6 luc reporter (Qiagen #CLS-6031L)
T1 sequence (P18850 1-670): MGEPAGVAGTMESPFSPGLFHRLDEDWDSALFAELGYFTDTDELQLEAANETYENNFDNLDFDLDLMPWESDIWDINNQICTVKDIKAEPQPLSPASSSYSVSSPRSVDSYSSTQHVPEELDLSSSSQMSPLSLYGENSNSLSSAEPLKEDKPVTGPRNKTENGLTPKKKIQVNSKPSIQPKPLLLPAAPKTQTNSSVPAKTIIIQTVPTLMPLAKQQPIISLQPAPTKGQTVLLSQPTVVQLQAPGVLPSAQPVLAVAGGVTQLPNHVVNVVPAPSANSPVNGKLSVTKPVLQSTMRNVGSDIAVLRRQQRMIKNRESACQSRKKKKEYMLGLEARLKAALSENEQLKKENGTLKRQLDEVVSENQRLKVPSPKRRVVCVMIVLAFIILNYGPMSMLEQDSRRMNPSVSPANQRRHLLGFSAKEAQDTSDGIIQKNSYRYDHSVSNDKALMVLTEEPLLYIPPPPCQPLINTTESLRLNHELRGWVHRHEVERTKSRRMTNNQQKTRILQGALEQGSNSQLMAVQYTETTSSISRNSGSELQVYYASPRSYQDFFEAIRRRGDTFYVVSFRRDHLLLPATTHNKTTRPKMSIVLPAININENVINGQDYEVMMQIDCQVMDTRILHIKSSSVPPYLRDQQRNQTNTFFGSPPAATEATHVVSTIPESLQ
Experimental: (§1) To understand how exemplary compounds of the invention modulate the activity of ATF6 in absence or presence of endoplasmic reticulum (ER) stress, a Human bone osteosarcoma (U2-OS)-based TRE-luciferase reporter stable cell line was generated to determine the modulation of transcription of ATF6 target genes.
(§2) U2-OS cells were obtained from the American Type Culture Collection (ATCC HTB-96, ATCC Manassas, VA) and were cultured with growing medium containing Dulbecco's Modified Eagle's Medium (DMEM) (Cat. No.: SH30023.02, HyClone) supplemented with fetal bovine serum (FBS) 10% (Cat. No.: 16000044, Gibco) and 1% penicillin-streptomycin antibiotic cocktail (Cat. No.: SV30010, Hyclone).
(§3) Cignal Lenti ATF6 luc reporter (Qiagen #CLS-6031L) was used to produce a stable cell line in U2-OS cells (U2-OS ATF6 TRE-luciferase reporter). The lenti ATF6 reporter is a preparation of replication incompetent, VSV-g pseudotyped lentivirus particles expressing the firefly luciferase gene under the control of a minimal (m)CMV promoter and tandem repeats of the ATF6 transcriptional response element (TRE). The number of response elements as well as the intervening sequence between response elements has been experimentally optimized to maximize the signal to noise ratio.
(§4) Exemplary compounds of the invention and reference compounds were prepared from powder as 10 mM stock solutions in dimethyl sulfoxide (DMSO; Cat. No. #D2650, Sigma Aldrich) and stored at −80° C. in presence of N2 neutral atmosphere.
(§5) For the primary screening, 40,000 U2-OS ATF6 TRE-luciferase reporter cells were plated in poly-D-lysine (Cat. No.: P2636, Sigma) pre-coated white 96-well plates (Thermo Scientific Nunc #136101) with 100 μL of growing medium. Cells were incubated in humidified chambers for 24 hr.
For testing exemplary compounds in presence of ER-stress, cells were pre-treated for 30 min with 50 μL growing medium containing either vehicle (DMSO), 1 or 10 μM test compound. After this pre-incubation, 50 μL of a solution containing 0.2 μM of the ER stress-inducer thapsigargin (Tg) was added to the appropriate wells. The Tg solution also contains vehicle or test compounds at 1 or 10 μM as indicated. The final concentration of DMSO in each well was kept at 0.3%. Plates were incubated for 8 hr in humidified chambers.
After the 8 hr incubation, plates were cooled down to room temperature for 10 min prior to the luciferase assays. Luciferase reactions were performed using Luciferase Assay System (Cat. No.: E4550, Promega). Briefly, each well was washed with 100 μl of PBS 1× and, then, 20 μl of lysis reagent was added into each well. Plates were shaken for 10 min and, then, 50 μl of Luciferase Assay Reagent was added to each well. Luminescence was determined by integration of 1 s with a gain of 110 in a Synergy 4 Microplate reader. All measurements were carried out in triplicate.
The average activity determined from the wells containing vehicle only (DMSO, 0% of ATF6 activity) was used as blank and subtracted from the rest of measurements. The average activity determined from the wells containing Tg only was used as 100% of ATF6 activity. The percentage of modulation of exemplary compounds was calculated by normalizing values to potential maximal activation with Tg.
ATF6 activities of exemplary compounds at 1 and 10 μM in presence Tg-induced ER stress tested in the U2-OS ATF6 TRE-luciferase reporter cells were determined and are shown in Table 2-2 and Table 3-2.

ATF6 [2] = target: T1, ATF6; assay: ERSE ATF6-luciferase assay in absence of ER stress (U2-OS ATF6 TRE-luciferase reporter cells); format: cell-based; conditions: normalized to maximal activation with Tg; for activation at 1 µM / activation at 10 µM: U2OS, 8 h; for activation at 1 µM / activation at 10 µM / ATF6 activity @ 10 μM - No Tg [%] / ATF6 activity @ 1 μM-No Tg [%]: in absence of ER stress (no Tg); for activation at 1 µM: Table 3-3, read-out: ATF6 activity @ 1 μM-No Tg [%]; for activation at 10 µM / ATF6 activity @ 10 μM - No Tg [%]: 10 μM test compound; for activation at 10 µM: Table 3-3, read-out: ATF6 activity @ 10 μM - No Tg [%]; for ATF6 activity @ 10 μM - No Tg [%] / ATF6 activity @ 1 μM-No Tg [%]: Table 3-3
Experimental: as §1, §2, §3, §4, §5
For testing exemplary compounds in absence of ER-stress, cells were treated for 8 hr with 100 μL growing medium containing either vehicle (DMSO), 1 or 10 μM test compound or 0.1 μM Tg. The final concentration of DMSO in each well was kept at 0.3%. Plates were incubated in humidified chambers.
After 8 hr of incubation, plates were cooled down to room temperature for 10 min prior to luciferase assays. Luciferase reactions were performed as above. Luminescence was read by integration of 1 s with a gain of 110 in a Synergy 4 Microplate reader. All measurements were carried out in triplicate.
The average activity determined from the wells containing vehicle only (DMSO, 0% of ATF6 activity) was used as blank and subtracted from the rest of measurements. The percentage of modulation of exemplary compound was calculated by normalizing values to potential maximal activation with Tg.
ATF6 activities of exemplary compounds at 1 and 10 μM in absence of Tg-induced ER stress in the U2-OS ATF6 TRE-luciferase reporter cells were determined and are shown in Table 3-2, and Table 3-3.

SMILES	activity at 1 µM (ATF6 [1]; Table 2-3)	activation at 1 µM (ATF6 [2]; 1 μM test compound)	activity at 10 µM (ATF6 [1]; Table 2-3)	activation at 10 µM (ATF6 [2])	ATF6 activity @ 1 μM [%] (ATF6 [1]; Table 2-3)	ATF6 activity @ 10 μM - No Tg [%] (ATF6 [2]; 8 hr)	ATF6 activity @ 10 μM [%] (ATF6 [1]; Table 2-3)	ATF6 activity @ 1 μM-No Tg [%] (ATF6 [2]; 1 μM test compound, 8 hr)	ATF6 activity @ 1 μM [%] (ATF6 [1]; Table 2-2)	ATF6 activity @ 10 μM [%] (ATF6 [1]; Table 2-2)	ATF6 activity @ 1 μM [%] (ATF6 [2]; 1 μM test compound, in absence of ER stress, 8 hr, Table 3-2)
O=C(Nc1cnn(C2CNC2)c1)c1cc(-c2ccco2)on1 [Compound 3-3, N-(1-(azetidin-3-yl)-1H-pyrazol-4-yl)-5-(furan-2-yl)isoxazole-3-carboxamide]	125 to 150%	0 to 25%	–	–	–	–	–	–	–	–	–
O=C(Nc1cnn(C2CCCC2)c1)c1cc(-c2ccco2)on1 [Compound 3-1, N-(1-cyclopentyl-1H-pyrazol-4-yl)-5-(furan-2-yl)isoxazole-3-carboxamide]	> 150%	0 to 25%	> 150%	0 to 25%	–	–	–	–	–	–	–
O=C(Nc1cnn(C2CCOC2)c1)c1cc(-c2ccccn2)on1 (single isomer, unassigned) [Compound 3-20, 5-(pyridin-2-yl)-N-(1-(tetrahydrofuran-3-yl)-1H-pyrazol-4-yl)isoxazole-3-carboxamide]	–	0 to 25%	> 150%	–	+ (+ refers to 100% < % activity < 125% at 1 or 10 μM)	+ (+ refers to 0% < % activity < 25% at 1 or 10 μM test compound)	–	–	–	–	–
O=C(Nc1cnn(CC2CCCC2)c1)c1cc(-c2ccco2)on1 [Compound 3-2, N-(1-(cyclopentylmethyl)-1H-pyrazol-4-yl)-5-(furan-2-yl)isoxazole-3-carboxamide]	> 150%	0 to 25%	> 150%	0 to 25%	–	–	–	–	–	–	–
CC(C1CCOC1)n1cc(NC(=O)c2cc(-c3ccco3)on2)cn1 (centres unmarked) [Compound 3-25, 5-(furan-2-yl)-N-(1-(1-(tetrahydrofuran-3-yl)ethyl)-1H-pyrazol-4-yl)isoxazole-3-carboxamide]	–	–	–	–	+ (+ refers to 100% < % activity < 125% at 1 or 10 μM)	+ (+ refers to 0% < % activity < 25% at 1 or 10 μM test compound)	+++ (+++ refers to >150% at 1 or 10 μM test compound)	+ (+ refers to 0% < % activity < 25% at 1 or 10 μM test compound)	–	–	–
CC(C1CCOC1)n1cc(NC(=O)c2cc(-c3ccco3)on2)cn1 (centres unmarked) [Compound 3-26, 5-(furan-2-yl)-N-(1-(1-(tetrahydrofuran-3-yl)ethyl)-1H-pyrazol-4-yl)isoxazole-3-carboxamide]	–	–	–	–	+++ (+++ refers to >150% at 1 or 10 μM test compound)	+++ (+++ refers to % activity >50 % at 1 or 10 μM test compound)	+++ (+++ refers to >150% at 1 or 10 μM test compound)	+ (+ refers to 0% < % activity < 25% at 1 or 10 μM test compound)	–	–	–
O=C(Nc1cnn(Cc2ccc(C(F)(F)F)cc2)c1)c1cc(-c2ccco2)on1 [Ceapin-A8, reference compound]	–	–	–	–	+ (+ refers to 100% < % activity < 125% at 1 or 10 μM)	–	− (− refers to 75% < % activity < 100% at 1 or 10 μM)	–	+ (+ refers to 100% < % activity < 125% at 1 or 10 μM)	− (− refers to 75% < % activity < 100% at 1 or 10 μM)	+ (+ refers to 0% < % activity < 25% at 1 or 10 μM test compound)
CC(C1CCOC1)n1cc(NC(=O)c2cc(-c3ccco3)on2)cn1 (centres unmarked) [Compound 3-24, 5-(furan-2-yl)-N-(1-(1-(tetrahydrofuran-3-yl)ethyl)-1H-pyrazol-4-yl)isoxazole-3-carboxamide]	–	0 to 25%	> 150%	–	+ (+ refers to 100% < % activity < 125% at 1 or 10 μM)	++ (++ refers to 25% < % activity < 50% at 1 or 10 μM test compound)	–	–	–	–	–
O=C(Nc1cnn(C2CCNC2)c1)c1cc(-c2ccco2)on1 (centres unmarked) [Compound 3-4, 5-(furan-2-yl)-N-(1-(pyrrolidin-3-yl)-1H-pyrazol-4-yl)isoxazole-3-carboxamide]	125 to 150%	0 to 25%	> 150%	0 to 25%	–	–	–	–	–	–	–
